Laboratory results published in US20070155755A1, “N-arylshydroxyalkylidene-carboxamide compositions and methods” (priority 2004, published 2007).

Assays:
[1] = tested on: skin of the upper lip; assay: Cooling sensation bioassay, ointment applied to skin above the upper lip (philtrum); type: in vivo, human; settings: for duration of action (in words): application to the skin of test subjects; for duration of action, cooling on the skin of the upper lip (FIG. 1 legend): in Aquaphor ointment, concentration not given; for quality of sensation and duration (coolness not cold, duration at least three hours): philtrum method of testing; for duration of action, cooling on the skin of the upper lip: 0.5% wt/vol in Aquaphor ointment
From the text: A reliable place for topical application is on the upper lip, above the vermillion border of the lips, on the philtrum, lateral to the philtrum until the nasolabial folds, and on the lower nostrils. This part of the face is known to be densely innervated with cold receptors, second only to the surface of eyeball. Tingling, cool and cold sensations may be experienced and rated for intensity. This test is quite accurate for predicting the cooling activity of candidate N-arylshydroxyalkylidene-cCarboxamide drugs, but most importantly, it also measures the duration of drug action on the sensory receptors. The duration of action is not measured in a receptor assay and is difficult to quantify on the tongue because of the dynamic fluid conditions in the oral cavity and the presence of taste factors that affect thermosensation.
Bioassay Procedures For bioassay of CPS-195 on the skin, CPS-195 was stirred and dissolved in warm liquid Aquaphor® ointment to yield ointment concentrations of 0.25, 0.5, 1 and 2% wt/vol. After cooling, 50 to 80 mg of the solid ointment was placed on the tip of a plastic stick and applied to the skin above the upper lip, on the philtrum, and lateral to the philtrum up to the nasolabial folds, of test subjects and the onset and duration of cooling sensations recorded.
The intensity of the subjective skin sensation is rated as 0, 1, 2 or 3 with: 0 as no change, 1 as slight coolness, cold, or tingling, 2 as clear cut signal of coolness, cold, or tingling, and 3 as robust cooling or cold. The interval for recording sensations is at 5 min intervals, until two successive zeroes are obtained. The results are averaged values of 4 to 6 separate trials in the same individual. The data are plotted using SigmaPlot (Systat Software, Point Richmond Calif.) and a smoothing function with a negative exponential was used for analysis and statistical fit of the results.
The onset of drug action is taken as the time to reach 2 units of coolness intensity, and offset of drug action is the time when coolness intensity drops below 1.5, after previously surpassing 2 units. The duration of cooling action is defined as the offset time minus the onset time, which in this case averaged […]. The quality of the sensation is also noted, such as refreshing coolness, cold, or if the sensation is accompanied by irritation (stinging or burning). The quality of the sensation is not rated for intensity.

[2] = tested on: throat irritation and cough; assay: Ludipress tablet on the tongue in an individual with throat irritation and cough; type: in vivo, human; settings: 3% wt/wt tablet in Ludipress, 60 mg (1.8 mg CPS-195)
Procedure: CPS-195 was formulated as a 3% wt/wt tablet in Ludipress®, a rapidly disintegrating direct compression excipient made by BASF Corp. The tablet size was 60 mg so each unit contained 1.8 mg of CPS-195. […] For example, applied onto the mucous membranes of the oral cavity it can soothe the discomforts of pharyngitis/laryngitis, oral mucositis, oral ulcers, and idiopathic facial pain. In the pharynx and upper airways, CPS-195 may be used to reduce or to treat cough, asthma, and chronic obstructive pulmonary disease. On the skin, CPS-195 can be used to treat the discomfort of severe acne, eczema, diabetic ulcers, and the like.

[3] = tested on: dorsal surface of the tongue; assay: Cooling sensation after placement on the dorsal surface of the tongue; type: in vivo, human; settings: 2 mg on dorsal surface of the tongue
Procedure: The onset of cooling was 3 to 5 min, but once the effect was established, the entire oral cavity and pharyngeal surfaces (oro-, laryngo- and naso-pharynx) felt cool.

[4] = biological target: T1, TRP-M8 receptor (Homo sapiens, UniProt Q7Z2W7); assay: TRP-M8 receptor assay; type: cell-based
T1 construct: expressed in transfected cells
T1 sequence (Q7Z2W7 whole entry): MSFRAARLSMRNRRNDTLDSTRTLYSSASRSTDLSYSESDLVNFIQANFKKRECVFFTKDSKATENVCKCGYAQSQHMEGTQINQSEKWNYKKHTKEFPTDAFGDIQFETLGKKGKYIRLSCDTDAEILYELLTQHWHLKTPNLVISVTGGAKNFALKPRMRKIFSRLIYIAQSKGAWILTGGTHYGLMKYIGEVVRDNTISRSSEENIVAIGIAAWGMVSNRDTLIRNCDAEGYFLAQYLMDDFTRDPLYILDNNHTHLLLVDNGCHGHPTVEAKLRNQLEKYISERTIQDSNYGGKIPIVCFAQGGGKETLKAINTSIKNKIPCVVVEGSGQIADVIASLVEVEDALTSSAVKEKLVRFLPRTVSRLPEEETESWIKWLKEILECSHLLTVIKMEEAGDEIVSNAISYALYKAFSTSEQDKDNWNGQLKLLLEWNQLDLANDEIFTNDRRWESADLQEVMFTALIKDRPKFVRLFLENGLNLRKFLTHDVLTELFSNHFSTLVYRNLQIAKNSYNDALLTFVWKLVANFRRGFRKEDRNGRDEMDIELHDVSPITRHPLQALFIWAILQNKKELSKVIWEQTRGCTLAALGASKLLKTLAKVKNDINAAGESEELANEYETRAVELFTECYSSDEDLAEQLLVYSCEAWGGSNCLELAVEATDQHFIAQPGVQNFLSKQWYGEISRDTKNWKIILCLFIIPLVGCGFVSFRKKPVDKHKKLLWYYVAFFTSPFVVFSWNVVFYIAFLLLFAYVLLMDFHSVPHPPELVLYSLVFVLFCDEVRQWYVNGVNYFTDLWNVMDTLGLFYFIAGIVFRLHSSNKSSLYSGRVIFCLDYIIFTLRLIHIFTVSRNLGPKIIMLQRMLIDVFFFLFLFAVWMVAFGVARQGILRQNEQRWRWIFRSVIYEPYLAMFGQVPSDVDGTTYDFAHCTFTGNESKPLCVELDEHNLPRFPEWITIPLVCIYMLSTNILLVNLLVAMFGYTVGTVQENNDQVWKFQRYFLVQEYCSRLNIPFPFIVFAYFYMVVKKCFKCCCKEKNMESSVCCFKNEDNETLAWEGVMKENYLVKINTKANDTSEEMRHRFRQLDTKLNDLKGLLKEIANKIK
From the text: Tests for Activities of New Compounds. Pain was defined by Sir Charles Sherrington as “the psychic adjunct of an imperative protective reflex”. Psychic events such as cooling, irritation, itch, and pain cannot be expressed by animals (animals cannot say “ouch” or that “it itches”) so the sensory effects of chemicals must be indirectly inferred. Receptor assays, based on cells transfected with the gene for TRP-M8 or TRP-A1, may be used as a model of sensory processes. […] The best information on the pharmacological properties of these chemicals must therefore be derived from human experiment.

## CC1CCC(C(C)C)C(O)C1 (single isomer, unassigned; (-)) [(−)-menthol, reference compound]
[1]
  duration of action (in words): active for less than one hour

## CC(C)[C@@H]1CC[C@@H](C)C[C@H]1C(=O)N(C)CC(O)c1cccc(O)c1 (stereo in doubt) [CPS-195, 2-Isopropyl-5-methyl-cyclohexanecarboxylic acid [2′-hydroxy-2′-(3″-hydroxy-phenyl)-ethyl]-N-methyl-amide]
[2]
  duration of antitussive effect: 24 h
  effect on throat irritation: reduced throat irritation
[3]
  onset of cooling: 3 to 5 min
[1]; 0.25% wt/vol in Aquaphor ointment
  duration of action, coolness and cold on the skin of the upper lip: 1.2 h
[1]; 1% wt/vol in Aquaphor ointment
  duration of action, coolness and cold on the skin of the upper lip: 2.4 h
[1]; 2% wt/vol in Aquaphor ointment
  duration of action, coolness and cold on the skin of the upper lip: 5.2 h
[1]
  duration of action, cooling on the skin of the upper lip (FIG. 1 legend): more than 1 hr
[1]; upper lip ointment test
  potency compared to CPS-179, CPS-190 and CPS-192: most potent

## CC(C)[C@@H]1CC[C@@H](C)C[C@H]1C(=O)Nc1ccc(S(=O)(=O)Nc2ncccn2)cc1 [CPS-125]
[1]
  quality of sensation and duration (coolness not cold, duration at least three hours): qualitative aspects of sensation are met

## CC(=O)c1ccc(C(CO)CNC(=O)[C@@H]2C[C@H](C)CC[C@H]2C(C)C)cc1 (stereo partly shown) [CPS-179, 2-Isopropyl-5-methyl-cyclohexanecarboxylic acid [2′-(4″-acetyl-phenyl)-3′-hydroxy-propyl]-amide]
[1]
  duration of action, cooling on the skin of the upper lip: more than 1 hr
  duration of action, cooling on the skin of the upper lip (FIG. 1 legend): more than 1 hr

## CC1CCC(C(C)C)C(C(=O)N(C)CC(O)c2ccc(O)c(O)c2)C1 (stereo not shown) [CPS-190]
[1]
  duration of action, cooling on the skin of the upper lip: more than 1 hr
  duration of action, cooling on the skin of the upper lip (FIG. 1 legend): more than 1 hr

## CC1CCC(C(C)C)C(C(=O)NCC(O)c2cccc(O)c2)C1 (stereo not shown) [CPS-192]
[1]
  duration of action, cooling on the skin of the upper lip: more than 1 hr
  duration of action, cooling on the skin of the upper lip (FIG. 1 legend): more than 1 hr

## CCOC(=O)CNC(=O)[C@@H]1C[C@H](C)CC[C@H]1C(C)C [WS-5, reference compound]
[1]
  duration of action (in words): active for less than one hour

## COc1ccc(NC(=O)[C@@H]2C[C@H](C)CC[C@H]2C(C)C)cc1 [WS-12, reference compound]
[4]
  activity on the TRP-M8 receptor assay: active at sub-micromolar concentrations
[1]; 2% preparation
  end of action: dissipated at the end of one hour
  time at which duration of action peaks: 30 min
[1]; applied at 1 to 2% to the philtrum and its environs
  sensation elicited: strong cold sensations
[1]
  quality of sensation and duration (coolness not cold, duration at least three hours): sensations of cold, but of brief duration
